Converted amounts (≈) assume the structure as drawn.

The assay deals with Mycobacterium tuberculosis. The assay can be described thus: Antimycobacterial activity against rifampin and isoniazid resistant-Mycobacterium tuberculosis Beijing harboring Ser 531 to Leu 315 and Ser to Thr in rpoB and katG genes mutation after 24 hrs by microbroth dilution method. It counts as functional. (In broth dilution the organism is exposed to a series of concentrations in liquid medium.)
Regarding `FC(F)(F)c1ccc(-c2cncnc2-c2cccs2)cc1`, the minimum inhibitory concentration (MIC) was 40.81 µM (≈ 12.5 µg/mL).

The compound `Fc1ccc(-c2cncnc2-c2cccs2)cc1` returned an MIC of 12.5 µM (≈ 3.2 µg/mL).

The compound `FC(F)(F)c1cc(-c2cncnc2-c2cccs2)cc(C(F)(F)F)c1` came in with an MIC of 33.39 µM (≈ 12.5 µg/mL). For the compound `FC(F)(F)c1ccc(-c2cncnc2-c2cccs2)c(C(F)(F)F)c1`, the MIC is 16.56 µM (≈ 6.2 µg/mL). This MIC lies about 2-fold lower than the previous one.

With `CC1COc2c(N3CCN(C)CC3)c(F)cc3c(=O)c(C(=O)O)cn1c23` (centres undefined) [OFLOXACIN], the minimum inhibitory concentration (MIC) came out at 0.28 µM (≈ 0.101 µg/mL). In turn, `FC(F)(F)c1ccc(-c2cncnc2-c2ccco2)cc1` came in with an MIC of 43.07 µM (≈ 12.5 µg/mL). Against the preceding compound, the MIC is about 150-fold higher. With `FC(F)(F)c1cc(-c2cncnc2-c2ccco2)cc(C(F)(F)F)c1` the figure was 8.65 µM (≈ 3.1 µg/mL); with `Fc1ccccc1-c1cncnc1-c1cccs1`, 12.5 µM (≈ 3.2 µg/mL); with `Fc1ccccc1-c1cncnc1-c1ccco1`, 52.03 µM (≈ 12.5 µg/mL).

Compound `FC(F)(F)c1ccccc1-c1cncnc1-c1cccs1` had a minimal inhibitory concentration (MIC) of 20.24 µM (≈ 6.2 µg/mL). With `Fc1cccc(-c2cncnc2-c2cccs2)c1`, the MIC is 12.5 µM (≈ 3.2 µg/mL). Compound `FC(F)(F)c1ccccc1-c1cncnc1` yielded an MIC of 27.66 µM (≈ 6.2 µg/mL). With `c1ccc(-c2cncnc2-c2cccs2)cc1` the figure was 26.02 µM (≈ 6.2 µg/mL); with `Fc1cc(F)cc(-c2cncnc2)c1`, 3.64 µM (≈ 0.699 µg/mL); with `FC(F)(F)c1cccc(-c2cncnc2-c2cccs2)c1`, 4.9 µM (≈ 1.5 µg/mL). On to `Fc1cc(F)cc(-c2cncnc2-c2ccco2)c1`, for which the MIC worked out at 24.01 µM (≈ 6.2 µg/mL). In the case of `c1ccc(-c2cncnc2)cc1`, the minimal inhibitory concentration (MIC) is 80.03 µM (≈ 12.5 µg/mL). Consider `Fc1ccc(-c2cncnc2-c2cccs2)c(F)c1`, for which the MIC stood at 45.57 µM (≈ 12.5 µg/mL). `Fc1ccc(-c2cncnc2)cc1` had a minimum inhibitory concentration (MIC) of 71.76 µM (≈ 12.5 µg/mL). With `FC(F)(F)c1cccc(-c2cncnc2-c2ccco2)c1` the figure was 43.07 µM (≈ 12.5 µg/mL); with `Fc1ccccc1-c1cncnc1`, 71.76 µM (≈ 12.5 µg/mL). Compound `FC(F)(F)c1ccc(-c2cncnc2)cc1` displayed an MIC of 55.76 µM (≈ 12.5 µg/mL). With `FC(F)(F)c1cc(-c2cncnc2)cc(C(F)(F)F)c1` the figure was 5.13 µM (≈ 1.5 µg/mL). Compound `FC(F)(F)c1ccc(-c2cncnc2)c(C(F)(F)F)c1` gave an MIC of 42.78 µM (≈ 12.5 µg/mL).

`Fc1cccc(-c2cncnc2-c2ccco2)c1` displayed a minimal inhibitory concentration (MIC) of 6.24 µM (≈ 1.5 µg/mL).

In the case of `FC(F)(F)c1cccc(-c2cncnc2)c1`, the MIC was determined as 55.76 µM (≈ 12.5 µg/mL). Take `Fc1ccc(-c2cncnc2)c(F)c1`: the MIC was 16.13 µM (≈ 3.1 µg/mL). Turning to `FC(F)(F)c1ccccc1-c1cncnc1-c1ccco1`, the MIC came out at 43.07 µM (≈ 12.5 µg/mL). With `Fc1ccc(-c2cncnc2-c2ccco2)c(F)c1` the figure was 48.41 µM (≈ 12.5 µg/mL); with `Fc1cc(F)cc(-c2cncnc2-c2cccs2)c1`, 45.57 µM (≈ 12.5 µg/mL); with `c1ccc(-c2cncnc2-c2ccco2)cc1`, 1.57 µM (≈ 0.349 µg/mL). With `Fc1cccc(-c2cncnc2)c1` the figure was 35.88 µM (≈ 6.25 µg/mL).

`FC(F)(F)c1ccc(-c2cncnc2-c2ccco2)c(C(F)(F)F)c1` registered an MIC of 1.95 µM (≈ 0.699 µg/mL). Compared with the last compound, the MIC is about 18-fold lower. With `Fc1ccc(-c2cncnc2-c2ccco2)cc1` the figure was 52.03 µM (≈ 12.5 µg/mL).

The MIC is the lowest concentration found to suppress growth. Low values mean a more susceptible organism, high ones a less susceptible organism.

Values taken from ChEMBL document CHEMBL3817833, “Synthesis and evaluation of antitubercular activity of fluorinated 5-aryl-4-(hetero)aryl substituted pyrimidines” (Bioorg Med Chem, 2016).
